The record followed here is patent publication US10975357B2, “Methods and compositions related to differentiated lung cells” (TRUSTEES OF BOSTON UNIVERSITY, priority 2017, dated 2021).

What all share (assay type): cell-based, human
Assay [1] relates to NKX2-1+ lung epithelial progenitor cells. The assay can be described thus: SFTPCtdTomato reporter induction in day 15 NKX2-1+ progenitor outgrowth in 3D culture (flow cytometry). As to the method: Purification of NKX2-1+ Lung Progenitors by Cell Sorting. On day 15 of differentiation, cells were incubated at 37° C. in 0.05% trypsin-EDTA (Invitrogen) for 7-15 minutes, until they reached single cell suspension. Cells were then washed in media containing 10% fetal bovine serum (FBS, ThermoFisher), centrifuged at 300g×5 minutes, and resuspended in sort buffer containing Hank's Balanced Salt Solution (ThermoFisher), 2% FBS, 10 μM Y-27632, and 10 uM calcein blue AM (Life Technologies) for dead cell exclusion. Cells not containing the NKX2-1GFP reporter were subsequently stained with CD47-PerCPCy5.5 and CD26-PE antibodies (mouse monoclonal; Biolegend 1:200; 1×10^6 cells in 100 ul) for 30 minutes at 4° C., washed with PBS, and resuspended in sort buffer. Cells were passed through a 40 um strainer prior to sorting (Falcon). Various live cell populations indicated in the text (i.e. GFP+, GFP−, CD47hi/CD26−,CD47lo) were sorted on a high-speed cell sorter (MoFlo Legacy). Directed Differentiation of NKX2-1+ Lung Progenitor Outgrowth into iAEC2s Day 15 cells, either sorted (as described above) or unsorted (dissociated as described above), were resuspended in undiluted growth factor-reduced matrigel (Corning) at a dilution of 50-100 cells/ul, with droplets ranging in size from 20 ul in 96 well plates to 1 ml in 10 cm tissue culture-treated dishes (Corning). Cells in matrigel suspension were incubated at 37° C. for 20-30 minutes, then warm media was added to the plates. […]
Alveolosphere Long Term Culture, Dissociation, and Differentiation. […] These spheres were analyzed as follows: Z-stack images of live alveolospheres were taken and processed on a Keyence (Osaka, Japan) BZ-X700 fluorescence microscope. […] To generate single cell suspensions, cell pellets were incubated in 0.05% trypsin and continued through the trypsin-based dissociation protocol described above, after which they could be passaged into fresh matrigel, analyzed by flow cytometry, or sorted as described above. […]
In general terms: In flow cytometry, cells or beads pass a laser one at a time.

Another assay has as its system TNFa/NFkB pathway. Nature of the assay: Cytokine stimulation of PSC-derived alveolospheres, TNFa/NFkB pathway (Western blot IkB, IL8 and GM-CSF RT-qPCR). To be noted: TNFa 10 ng/ml and IL1b 10 ng/ml given together. As to the method: (§1) Where indicated in the text, outgrowth and distal/alveolar differentiation of cells after day 15 was performed in “CK+DCI” medium, consisting of cSFDM base, with 3 μM CHIR99021, 10 ng/mL rhKGF, and 50 nM dexamethasone (Sigma), 0.1 mM 8-Bromoadenosine 3′,5′-cyclic monophosphate sodium salt (Sigma) and 0.1 mM 3-Isobutyl-1-methylxanthine (IBMX) (Sigma) (DCI). Immediately after replating cells on Day 15 10 μM Y-27632 was added to the medium for 24 hours. Additional growth factors or cytokines were added or withdrawn as indicated in the text, including FGF10, TGFb, EGF, OSM (20 ng/ml), TNFa (10 ng/ml), and IL-1b (10 ng/ml) with other concentrations listed in figure legends (FIGS. 9A, 9B).
Reverse Transcriptase Quantitative Real Time Polymerase Chain Reaction (RT-qPCR). RT-qPCR was performed as previously described (Hawkins et al. 2017,). Briefly, RNA was isolated according to manufacturer's instructions using the Qiagen miRNeasy mini kit (Qiagen, Venlo, Netherlands). cDNA was generated by reverse transcription of up to 150 ng RNA from each sample using the Applied Biosystems High-Capacity cDNA Reverse Transcription Kit. […] Relative gene expression was calculated based on the average cycle (Ct) value of the technical triplicates, normalized to 18S control, and reported as fold change (2(−ΔΔCT)), with a fold change of 1 being assigned to undifferentiated (day 0) iPSCs or ESCs. […]

For a further assay, the system named is RUES2 alveolospheres. Nature of the assay: CHIR addback after 1-week withdrawal in alveolospheres. Conditions: CHIR withdrawn week 4-5, added back week 5-6. The protocol: as §1
(§2) Alveolosphere Long Term Culture, Dissociation, and Differentiation. Alveolospheres developed in 3D matrigel culture outgrowths within 3-7 days after day 15 replating, and were maintained in CK+DCI media for weeks to months, as indicated in the text. These spheres were analyzed as follows: Z-stack images of live alveolospheres were taken and processed on a Keyence (Osaka, Japan) BZ-X700 fluorescence microscope. […] To generate single cell suspensions, cell pellets were incubated in 0.05% trypsin and continued through the trypsin-based dissociation protocol described above, after which they could be passaged into fresh matrigel, analyzed by flow cytometry, or sorted as described above. […]

Assay [2] concerns BU3 NKX2-1GFP+/SFTPCtdTomato- population. The assay can be described thus: Late CHIR withdrawal from sorted NKX2-1GFP+/SFTPCtdTomato- population in 3D culture. To be noted: CHIR withdrawn for 10 days (days 40-50), cells sorted day 38. The protocol:
as §1, §2

Turning to “EGF: Recombinant mouse EGF (NSYPGCPSSYDGYCLNGGVCMHIESLDSYTCNCVIGYSGDRCQTRDLRWWELR; UniProt P01132 977-1029, looked up)”, the “further SFTPC induction efficiency with addition of the factor” value in assay [1] (factor added to differentiation media, FIG. 9B) is “No consistent further SFTPC induction efficiency”.
Take TNFa: the “NFkB signaling (IkB protein decrease, IL8 and GM-CSF expression)” value with TNFa/NFkB pathway is “activated NFkB signaling”.
For the molecule `Cc1c[nH]c(-c2cnc(NCCNc3ccc(C#N)cn3)nc2-c2ccc(Cl)cc2Cl)n1` [CHIR, CHIR99021, reference compound], in the assay on RUES2 alveolospheres, the “effect of re-exposure to CHIR after 1-week withdrawal” value is “maintained expression of the SFTPCtdTomato reporter and increased proliferation”. The “efficiency of differentiation into SFTPC+ progeny after withdrawal of CHIR” value in assay [2] is 68.7%. Also, the “emergence of SFTPC+ cells from NKX2-1+ precursors in presence of Wnt stimulation via CHIR” value in assay [1] (17-22 total differentiation days) fell in the range of 2 to 7 days. Also, in assay [1] (sorted NKX2-1GFP+ cells, by day 21, presence of CHIR in K+DCI base media), the “cells with induction of the SFTPCtdTomato reporter” value is listed as 7.17+/−0.89%.
For IL1b: Recombinant human IL1-b, in the assay with TNFa/NFkB pathway, the “NFkB signaling (IkB protein decrease, IL8 and GM-CSF expression)” value is “activated NFkB signaling”.
